Reference: patent publication US12286442B2, “Methods and materials for increasing transcription factor eb polypeptide levels” (University of Pittsburgh—Of the Commonwealth System of …, priority 2019, dated 2025)

Assays:
[1] = test system: TFEB; assay: High content screen measuring TFEB nuclear accumulation (TFEB nuclear/cytosol ratio) in BEAS-2B cells stably expressing TFEB-EGFP; type: cell-based, human; details: 18 hours incubation
How it was run: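 BEAS-2B cells stably expressing TFEB-EGFP (~2300–2500 per well) pre-incubated 8 hours, then exposed to serially diluted compounds (DMEM low glucose, 2% FBS) for 18 hours, PFA-fixed and DAPI-stained. Imaged nuclear (DAPI mask) vs cytosolic (expanded mask) TFEB-GFP; activity = minimal concentration raising nuclear/cytosol ratio by 25%.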

[2] = test system: BEAS-2B cells; assay: Toxicity: compound concentration needed to induce greater than 50 percent of cell loss; type: cell-based, human; details: 18 hours incubation
How it was run: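 BEAS-2B cells stably expressing TFEB-EGFP treated with serial compound dilutions for 18 h, then PFA-fixed, DAPI-stained and imaged. Toxicity scored as the concentration causing >50% cell loss, binned as ≥25 μM, <25 and >1 μM, or ≤1 μM ("+++").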

Row | Structure (SMILES) | efficacy (minimal compound concentration needed to increase TFEB nuclear/cytosol ratio by 25%) [1] | toxicity (compound concentration needed to induce greater than 50 percent of cell loss) [2]
1 | CCCc1nc2ccc(Nc3nc(-c4ccncc4)nc4ncccc34)cc2o1 [Compound 363] | +++ (“+++” equals ≤1 μM) | + (cell loss of greater than 50 percent at a concentration that equals or is greater than 25 μM was represented as)
2 | N#Cc1cccc(Nc2nc(-c3ccncc3)nc3ccccc23)c1 [Compound 186] | +++ (“+++” equals ≤1 μM) | + (cell loss of greater than 50 percent at a concentration that equals or is greater than 25 μM was represented as)
3 | c1ccc2c(Nc3ccc4[nH]cnc4c3)nc(-c3ccncc3)nc2c1 [Compound 193] | ++ (“++” equals between ≤25 μM and >1 μM) | ++ (cell loss of greater than 50 percent at a concentration less than 25 μM and greater than 1 μM was represented as)
4 | c1cc(-c2nc(Nc3ccc4ncsc4c3)c3cnccc3n2)ccn1 [Compound 122] | + (“+” equals >25 μM) | + (cell loss of greater than 50 percent at a concentration that equals or is greater than 25 μM was represented as)
5 | Cc1ccc2nc(-c3ccncc3)nc(Nc3ccc4[nH]ccc4c3)c2c1 [Compound 116] | +++ (“+++” equals ≤1 μM) | + (cell loss of greater than 50 percent at a concentration that equals or is greater than 25 μM was represented as)
6 | Cc1nc2cc(Nc3nc(-c4ccncc4)nc4ccccc34)ccc2[nH]1 [Compound 29] | ++ (“++” equals between ≤25 μM and >1 μM) | + (cell loss of greater than 50 percent at a concentration that equals or is greater than 25 μM was represented as)
7 | c1ccc2c(Nc3ccc4[nH]nnc4c3)nc(-c3ccncc3)nc2c1 [Compound 191] | +++ (“+++” equals ≤1 μM) | + (cell loss of greater than 50 percent at a concentration that equals or is greater than 25 μM was represented as)
8 | CC(C)c1nc2ccc(Nc3nc(-c4ccncc4)nc4c(F)cccc34)cc2s1 [Compound 367] | ++ (“++” equals between ≤25 μM and >1 μM) | + (cell loss of greater than 50 percent at a concentration that equals or is greater than 25 μM was represented as)
9 | Nc1c(Cl)cc(Nc2nc(-c3ccncc3)nc3ccccc23)cc1Cl [Compound 162] | + (“+” equals >25 μM) | + (cell loss of greater than 50 percent at a concentration that equals or is greater than 25 μM was represented as)
10 | NS(=O)(=O)CCCNc1nc(-c2ccncc2)nc2ccccc12 [Compound 174] | + (“+” equals >25 μM) | + (cell loss of greater than 50 percent at a concentration that equals or is greater than 25 μM was represented as)
11 | c1cnc2cc(-c3ccncc3)nc(Nc3ccc4[nH]ccc4c3)c2c1 [Compound 242] | +++ (“+++” equals ≤1 μM) | + (cell loss of greater than 50 percent at a concentration that equals or is greater than 25 μM was represented as)
12 | c1ccc2c(Nc3ccc4c(c3)NCCN4)nc(-c3ccncc3)nc2c1 [Compound 42] | +++ (“+++” equals ≤1 μM) | + (cell loss of greater than 50 percent at a concentration that equals or is greater than 25 μM was represented as)
13 | CC(C)c1nc2ccc(Nc3nc(-c4ccncc4)nc4ncccc34)cc2o1 [Compound 375] | +++ (“+++” equals ≤1 μM) | + (cell loss of greater than 50 percent at a concentration that equals or is greater than 25 μM was represented as)
14 | Cn1ncc2cc(Nc3nc(-c4ccncc4)nc4ccccc34)ccc21 [Compound 31] | +++ (“+++” equals ≤1 μM) | +++ (cell loss of greater than 50 percent at a concentration that equals or is less than 1 μM was represented as “+++.”)
15 | CCc1nc2ccc(Nc3nc(-c4ccncc4)nc4ccccc34)cc2o1 [Compound 360] | + (“+” equals >25 μM) | + (cell loss of greater than 50 percent at a concentration that equals or is greater than 25 μM was represented as)
16 | Cc1ccc(NC(=O)Cn2c(=O)n(-c3ccccc3)c(=O)c3ccc(C(=O)NCc4ccco4)cc32)cc1 [Compound 219] | + (“+” equals >25 μM) | + (cell loss of greater than 50 percent at a concentration that equals or is greater than 25 μM was represented as)
17 | COc1ccc(NC(=O)Cn2c(=O)n(-c3ccc(CC(=O)NCCc4ccccc4)cc3)c(=O)c3ccccc32)cc1 [Compound 221] | + (“+” equals >25 μM) | + (cell loss of greater than 50 percent at a concentration that equals or is greater than 25 μM was represented as)
18 | Fc1cccc(CNc2nc(-c3ccncc3)nc3ccccc23)c1 [Compound 188] | + (“+” equals >25 μM) | + (cell loss of greater than 50 percent at a concentration that equals or is greater than 25 μM was represented as)
19 | CC(=O)n1ccc2cc(Nc3nc(-c4ccncc4)nc4ccccc34)ccc21 [Compound 70] | +++ (“+++” equals ≤1 μM) | + (cell loss of greater than 50 percent at a concentration that equals or is greater than 25 μM was represented as)
20 | c1ccc2c(Nc3ccc4[nH]ncc4c3)nc(N3CCOCC3)nc2c1 [Compound 44] | +++ (“+++” equals ≤1 μM) | + (cell loss of greater than 50 percent at a concentration that equals or is greater than 25 μM was represented as)
21 | Fc1cccc2c(Nc3cc(F)c4[nH]ccc4c3)nc(-c3ccncc3)nc12 [Compound 158] | +++ (“+++” equals ≤1 μM) | + (cell loss of greater than 50 percent at a concentration that equals or is greater than 25 μM was represented as)
22 | Cc1ccc(-c2nc(Nc3cc(F)ccc3C)c3ccccc3n2)cc1 [Compound 195] | + (“+” equals >25 μM) | + (cell loss of greater than 50 percent at a concentration that equals or is greater than 25 μM was represented as)
